Data as given in ChEMBL document CHEMBL3039007, “Structure-based identification of OATP1B1/3 inhibitors” (Mol Pharmacol, 2013).

Experiments:
[1] = target: T1, Solute carrier organic anion transporter family member 1B3 (Homo sapiens, UniProt Q9NPD5); conditions: chinese hamster, cho, 10 µM
T1 sequence (Q9NPD5 whole entry): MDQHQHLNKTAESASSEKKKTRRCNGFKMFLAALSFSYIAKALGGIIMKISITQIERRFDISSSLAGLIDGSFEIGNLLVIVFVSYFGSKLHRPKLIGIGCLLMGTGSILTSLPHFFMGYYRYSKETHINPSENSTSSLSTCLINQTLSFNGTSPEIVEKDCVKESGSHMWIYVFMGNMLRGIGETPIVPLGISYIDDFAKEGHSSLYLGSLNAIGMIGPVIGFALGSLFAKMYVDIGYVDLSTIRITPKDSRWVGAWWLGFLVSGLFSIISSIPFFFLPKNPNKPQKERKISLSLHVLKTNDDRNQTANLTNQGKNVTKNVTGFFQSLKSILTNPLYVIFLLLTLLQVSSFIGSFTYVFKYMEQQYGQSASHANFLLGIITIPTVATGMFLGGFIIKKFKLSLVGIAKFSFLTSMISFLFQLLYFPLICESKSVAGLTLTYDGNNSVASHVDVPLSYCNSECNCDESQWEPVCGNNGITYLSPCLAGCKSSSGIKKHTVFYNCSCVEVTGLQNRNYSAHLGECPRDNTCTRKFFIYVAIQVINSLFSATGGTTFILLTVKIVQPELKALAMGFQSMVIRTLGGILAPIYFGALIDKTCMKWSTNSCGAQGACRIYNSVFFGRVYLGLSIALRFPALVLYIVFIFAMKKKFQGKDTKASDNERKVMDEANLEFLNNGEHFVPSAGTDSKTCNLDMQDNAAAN

[2] = target: T2, Solute carrier organic anion transporter family member 1B1 (Homo sapiens, UniProt Q9Y6L6); conditions: chinese hamster, cho, 10 µM
T2 sequence (Q9Y6L6 whole entry): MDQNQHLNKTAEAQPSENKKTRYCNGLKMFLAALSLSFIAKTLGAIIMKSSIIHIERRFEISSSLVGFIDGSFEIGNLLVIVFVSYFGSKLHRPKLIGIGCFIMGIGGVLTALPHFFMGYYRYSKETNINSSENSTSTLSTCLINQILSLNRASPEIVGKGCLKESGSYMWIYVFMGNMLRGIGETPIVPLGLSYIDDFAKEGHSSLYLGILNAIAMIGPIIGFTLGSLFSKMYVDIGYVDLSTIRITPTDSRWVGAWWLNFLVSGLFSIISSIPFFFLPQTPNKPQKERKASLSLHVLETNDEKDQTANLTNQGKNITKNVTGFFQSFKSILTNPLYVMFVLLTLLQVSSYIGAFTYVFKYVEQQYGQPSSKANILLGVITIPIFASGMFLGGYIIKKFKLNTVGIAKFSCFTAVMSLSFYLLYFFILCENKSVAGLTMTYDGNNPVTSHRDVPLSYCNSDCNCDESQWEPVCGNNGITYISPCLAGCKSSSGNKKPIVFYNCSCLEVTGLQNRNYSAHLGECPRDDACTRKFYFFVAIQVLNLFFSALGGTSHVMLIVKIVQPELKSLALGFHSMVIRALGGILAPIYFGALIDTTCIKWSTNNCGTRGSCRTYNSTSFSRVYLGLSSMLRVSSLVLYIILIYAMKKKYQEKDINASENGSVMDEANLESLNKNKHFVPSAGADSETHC

SMILES	residual activity [1]	residual activity [2]
COc1ccc2c(c1OC)C(=O)O[C@H]2[C@H]1c2cc3c(cc2CCN1C)OCO3 [1R,9S-HYDRASTINE]	84.49%	94.94%
O=C(/C=C/c1ccccc1)c1ccc(O[C@@H]2O[C@H](CO)[C@@H](O)[C@H](O)[C@H]2O)cc1O [2',4'-DIHYDROXYCHALCONE 4'-GLUCOSIDE]	107.4%	99.51%
O=C(/C=C(\O)c1ccccc1)c1ccccc1O [2',beta-DIHYDROXYCHALCONE]	97.75%	95.04%
COc1ccc(-c2coc3cc(O)ccc3c2=O)c(OC)c1 [2'-METHOXYFORMONETIN]	83.66%	74.56%
COc1ccc(C(=O)c2ccc(O)cc2)c(O)c1O [2,3,4'-TRIHYDROXY-4-METHOXYBENZOPHENONE]	112.1%	114.8%
CCOc1ccc(C(=O)c2ccc(O)c(O)c2O)cc1 [2,3,4-TRIHYDROXY-4'-ETHOXYBENZOPHENONE]	99.48%	134.1%
CCOc1ccc(C(=O)c2ccc(OC)c(O)c2O)cc1 [2,3-DIHYDROXY-4-METHOXY-4'-ETHOXYBENZOPHENONE]	102.2%	172.8%
O=C(O)c1cccc(O)c1O [2,3-DIHYDROXYBENZOIC ACID]	84.74%	94.43%
COC(=O)COc1cc(Cl)c(Cl)cc1Cl [2,4,5-TRICHLOROPHENOXYACETIC ACID, METHYL ESTER]	116.4%	98.01%
O=C(O)COc1cc(Cl)c(Cl)cc1Cl [2,4,5-TRICHLOROPHENOXYACETIC ACID]	96.75%	95.54%
CC(=O)c1c(O)cc(O)cc1O [2,4,6-TRIHYDROXYACETOPHENONE]	92.98%	72.12%
COC(=O)COc1ccc(Cl)cc1Cl [2,4-DICHLOROPHENOXYACETIC ACID, METHYL ESTER]	110%	116.2%
O=C(O)COc1ccc(Cl)cc1Cl [2,4-DICHLOROPHENOXYACETIC ACID]	104.1%	111.6%
O=[N+]([O-])c1ccc(O)c([N+](=O)[O-])c1 [2,4-DINITROPHENOL]	78.36%	75.05%
COc1cc(O)c(C)c(O)c1 [2,6-DIHYDROXY-4-METHOXYTOLUENE]	91.69%	108.8%
COC1=CC(=O)C=C(OC)C1=O [2,6-DIMETHOXYQUINONE]	101.9%	115.1%
COc1cccc(OC)c1OCCNCC1COc2ccccc2O1.Cl (configuration not stated) [2- (2,6-DIMETHOXYPHENOXYETHYL)AMINOMETHYL-1,4-BENZODIOXANE HYDROCHLORIDE (WB 4101)]	96.02%	247.1%
CC(=O)c1ccc[nH]1 [2-ACETYLPYRROLE]	98.29%	111.7%
COC1=CC(=O)C(C(=O)c2ccccc2)=CC1=O [2-BENZOYL-5-METHOXYBENZOQUINONE]	165.6%	106.8%
CCOC(=O)C(=O)C1(C(=O)OCC)Oc2cc(OC)cc(OC)c2C(=O)C1c1ccccc1 (configuration not stated) [2-ETHOXYCARBONYL-2-ETHOXYOXALOYLOXYDIHYDROCHRYSIN DIMETHYL ETHER]	100.5%	117%
CCOC(=O)C1(O)Oc2cc(OC)cc(OC)c2C(=O)C1c1ccccc1 (configuration not stated) [2-ETHOXYCARBONYL-2-HYDROXY-5,7-DIMETHOXYISOFLAVANONE]	104%	106.9%
COc1ccc(C(=O)O)c(O)c1OC [2-HYDROXY-3,4-DIMETHOXYBENZOIC ACID]	82.78%	82.39%
Cc1[nH]c2ccccc2c1CN(C)C [2-METHYL GRAMINE]	80.09%	39.17%
O=[N+]([O-])c1cc(O)c(O)c([N+](=O)[O-])c1 [3,5-DINITROCATECHOL (OR-486)]	75.38%	38.63%
COc1c(Cl)ccc(Cl)c1C(=O)O [3,6 DICHLOROMETHOXYBENZOIC ACID]	155.5%	88.8%

Next, values leading:

residual activity [1]	residual activity [2]	SMILES
86.53%	70.41%	CC1(C)CC2C1CCC1(C)OC1CCC2(C)O (configuration not stated) [2-HYDROXY-5 (6)EPOXY-TETRAHYDROCARYOPHYLLENE]
115.1%	101.1%	CC(C)=CCc1c(O)cc(C)oc1=O [2-ISOPRENYL-3-HYDROXY-5-METHYL-a-PYRONE]
87.92%	137.6%	COc1cccc(/C=C/C(=O)O)c1C(C)C [2-ISOPROPYL-3-METHOXYCINNAMIC ACID]
97.95%	158.6%	Sc1nc2ccccc2s1 [2-MERCAPTOBENZOTHIAZOLE]
93.07%	92.29%	COC1(C)CCC2OC2(C)CCC2C1CC2(C)C (configuration not stated) [2-METHOXY-5 (6)EPOXY-TETRAHYDROCARYOPHYLLENE]
98.72%	95.14%	COc1c(O)cccc1O [2-METHOXYRESORCINOL]
107%	96.24%	Cc1occc(=O)c1/C=C/O [2-METHYL-3-HYDROXYETHYLENEPYRAN-4-ONE]
98.52%	115.1%	COc1cc(OC)c2c(=O)c(-c3ccccc3)c(C)oc2c1OC [2-METHYL-5,7,8-TRIMETHOXYISOFLAVONE]
47.58%	29.82%	C=C1CCC(C2CC(=O)OC2=O)C(=O)CCC2C1CC2(C)C (configuration not stated) [2-METHYLENE-5-(2,5-DIOXOTETRAHYDROFURAN-3-YL)-6-OXO--10,10-DIMETHYLBICYCLO[7: 2: 0]UNDECANE]
129.3%	128.5%	CCCc1occc(=O)c1/C=C/O [2-PROPYL-3-HYDROXYETHYLENEPYRAN-4-ONE]
129.7%	187.6%	COc1ccc(-c2cc(=O)c3ccccc3o2)cc1OC [3',4'-DIMETHOXYFLAVONE]
98.2%	101%	CC1(O)CC2C(CC1O)C2(C)C (configuration not stated) [3,4-DIHYDROXYCARANE]
114.1%	215.8%	C=C[C@@H](C1=CC(=O)C(OC)=C(OC)C1=O)c1ccccc1 [3,4-DIMETHOXYDALBERGIONE]
76.93%	99.01%	COc1ccc2oc(-c3ccccc3)c(OC)c(=O)c2c1 [3,6-DIMETHOXYFLAVONE]
120.8%	151.5%	O=c1c(O)c(-c2ccccc2)oc2cc(O)ccc12 [3,7-DIHYDROXYFLAVONE]
144.6%	59.28%	COc1ccc2c(=O)c(OC)c(-c3ccccc3)oc2c1 [3,7-DIMETHOXYFLAVONE]
80.05%	57.88%	CC1(C)CC2C1CCC1(C)OC2(C)CCC1O (configuration not stated) [3,7-EPOXYCARYOPHYLLAN-6-OL]
93.4%	72.4%	CC12CCC3C(CC3(C)C)C(C)(CCC1=O)O2 (configuration not stated) [3,7-EPOXYCARYOPHYLLAN-6-ONE]
96.33%	67.63%	COC(=O)C[C@H]1C(C)(C)[C@H](O)[C@@H]2CC3=C4CC(O)O[C@@H](c5ccoc5)[C@@]4(C)CCC3[C@]1(C)C2=O (stereo partly drawn) [3,16-DIDEOXYMEXICANOLIDE-3alpha-DIOL]
53.76%	51.44%	COC(=O)C[C@H]1C(C)(C)[C@@H](O)[C@@H]2CC3=C4CC(O)O[C@@H](c5ccoc5)[C@]4(C)CCC3[C@@]1(C)C2=O (stereo partly drawn) [3,16-DIDEOXYMEXICANOLIDE-3beta-DIOL]
104.4%	92.27%	C=C1C(N)CC2CC1C2(C)C (stereo not drawn) [3-AMINO-beta-PINENE]
